Results: patent US11572399B2, “Long-acting GIP peptide analogues” (University of Copenhagen, priority 2017, dated 2023)
Like-named read-outs stand apart in the source and are kept apart here. Peptide text beside a SMILES is read from it. * marks the point of attachment. C16 diacid = O=C(O)CCCCCCCCCCCCCCC(=O)*; Palmitoyl = CCCCCCCCCCCCCCCC(=O)*

Tests used:
human GIP receptor [1] = target: T1, human GIP receptor (Homo sapiens, UniProt P48546); experiment: cAMP accumulation assay, antagonism of a GIP-mediated cAMP response (50-80% of max); format: cell-based; conditions: for Fold change of IC50 versus GIP(5-30)NH2: fold change of IC50 from GIP(5-30)NH2
T1 construct: host or cells: COS-7, transient transfection (calcium phosphate), cDNA in pCMV-Script
T1 sequence (P48546 22-466): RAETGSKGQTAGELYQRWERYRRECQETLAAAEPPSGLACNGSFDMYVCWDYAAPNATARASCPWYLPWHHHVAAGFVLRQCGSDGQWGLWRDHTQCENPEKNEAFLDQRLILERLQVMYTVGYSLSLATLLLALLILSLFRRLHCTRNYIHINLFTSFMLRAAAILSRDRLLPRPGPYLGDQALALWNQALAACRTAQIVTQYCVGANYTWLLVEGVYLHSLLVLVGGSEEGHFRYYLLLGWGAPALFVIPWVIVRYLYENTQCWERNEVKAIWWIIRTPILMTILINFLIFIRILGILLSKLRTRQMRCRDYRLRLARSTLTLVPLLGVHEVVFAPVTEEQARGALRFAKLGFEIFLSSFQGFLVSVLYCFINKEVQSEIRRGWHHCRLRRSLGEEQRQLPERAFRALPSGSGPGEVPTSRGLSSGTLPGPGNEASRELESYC
Protocol: The day after, the cells were washed twice with Hepes buffered saline (HBS) buffer and incubated with HBS and 1 mM 3-isobutyl-1-methylxanthine (IBMX) for 30 min at 37° C. […] The HitHunter™ cAMP XS assay (DiscoveRx) was carried out according to the manufacturer's instructions.

human GIP receptor [2] = target: T1, human GIP receptor; experiment: cAMP accumulation assay, agonism (ligand alone); format: cell-based; conditions: Table 1; for Emax: COS-7, intrinsic cAMP activity
human GIP receptor [3] = target: T1, human GIP receptor; experiment: 125I-human GIP competition binding assay, in the presence and absence of 2% HSA; conditions: for Fold change HSA (2%)/Casein (0.1%): IC50 (plus HSA)/IC50 (minus HSA); for Binding (+/−HSA) Fold: fold change +HSA/−HSA;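 on all read-outs here: nonspecific binding taken as radioligand bound to untransfected cells, IC50 obtained from nonlinear regression fits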
[4] = transiently transfected COS-7 cells, Table 1 and text, read-out: cAMP antagonism nM (IC50, antagonistic potency)
[5] = binding in 0.1% casein (absence of HSA), log value, read-out: logIC50 0.1% casein (converted)
[6] = binding in presence of 2% HSA, read-out: logIC50 2% HSA (converted)
[7] = heterologous competition binding, transiently transfected COS-7 cells expressing the human GIP receptor, read-out: Binding
[8] = antagonism of GIP-mediated cAMP response, COS-7 cells, read-out: cAMP accumulation IC50
[9] = given as log EC50 (negative sign), read-out: cAMP agonism EC50 (log) (converted)

SMILES | Ability to antagonize the GIP-mediated cAMP response (in words) (human GIP receptor [1]) | IC50 (human GIP receptor [1]; [4]) [nM] | Emax (human GIP receptor [2]; COS-7 cells) [%] | Affinity compared to GIP(3-30)NH2 (in words) (human GIP receptor [3]) | Fold change HSA (2%)/Casein (0.1%) (human GIP receptor [3]) | IC50 (human GIP receptor [3]; [5]) [nM] | IC50 (human GIP receptor [3]; [6]) [nM] | IC50 (human GIP receptor [3]; [7]) [nM] | Fold change of IC50 versus GIP(5-30)NH2 (human GIP receptor [1]) | Binding (+/−HSA) Fold (human GIP receptor [3]) | IC50 (human GIP receptor [1]; [8]) [nM] | EC50 (human GIP receptor [2]; [9]) [nM] | EC50 (human GIP receptor [2]; COS-7 cells, read-out: cAMP agonism nM (EC50)) [nM] | Ki (human GIP receptor [3]; presence of 2% HSA) [nM]
CCCCCCCCCCCC(=O)N[C@H](C(=O)N[C@@H](Cc1ccccc1)C(=O)N[C@H](C(=O)N[C@@H](CO)C(=O)N[C@@H](CC(=O)O)C(=O)N[C@@H](Cc1ccc(O)cc1)C(=O)N[C@@H](CO)C(=O)N[C@H](C(=O)N[C@@H](C)C(=O)N[C@@H](CCSC)C(=O)N[C@@H](CC(=O)O)C(=O)N[C@@H](CCCCN)C(=O)N[C@H](C(=O)N[C@@H](Cc1c[nH]cn1)C(=O)N[C@@H](CCC(N)=O)C(=O)N[C@@H](CCC(N)=O)C(=O)N[C@@H](CC(=O)O)C(=O)N[C@@H](Cc1ccccc1)C(=O)N[C@H](C(=O)N[C@@H](CC(N)=O)C(=O)N[C@@H](Cc1c[nH]c2ccccc12)C(=O)N[C@@H](CC(C)C)C(=O)N[C@@H](CC(C)C)C(=O)N[C@@H](C)C(=O)N[C@@H](CCC(N)=O)C(=O)N[C@@H](CCCCN)C(N)=O)C(C)C)[C@@H](C)CC)[C@@H](C)CC)[C@@H](C)CC)[C@@H](C)O [AT118, [hGIP(5-30)NH2—C12/5]] | high potent antagonists | 29 | 0 | affinities in the same range as GIP(3-30)NH2 | 7.7 | 126 | 881 | 102 | – | – | – | – | – | –
CC[C@H](C)[C@H](NC(=O)[C@H](CO)NC(=O)[C@H](Cc1ccc(O)cc1)NC(=O)[C@H](CC(=O)O)NC(=O)[C@H](CO)NC(=O)[C@@H](NC(=O)[C@H](CCCCNC(=O)CCCCCCCCCCCCCCC(=O)O)NC(=O)[C@@H](N)[C@@H](C)O)[C@@H](C)CC)C(=O)N[C@@H](C)C(=O)N[C@@H](CCSC)C(=O)N[C@@H](CC(=O)O)C(=O)N[C@@H](CCCCN)C(=O)N[C@H](C(=O)N[C@@H](Cc1c[nH]cn1)C(=O)N[C@@H](CCC(N)=O)C(=O)N[C@@H](CCC(N)=O)C(=O)N[C@@H](CC(=O)O)C(=O)N[C@@H](Cc1ccccc1)C(=O)N[C@H](C(=O)N[C@@H](CC(N)=O)C(=O)N[C@@H](Cc1c[nH]c2ccccc12)C(=O)N[C@@H](CC(C)C)C(=O)N[C@@H](CC(C)C)C(=O)N[C@@H](C)C(=O)N[C@@H](CCC(N)=O)C(=O)N[C@@H](CCCCN)C(N)=O)C(C)C)[C@@H](C)CC [AT168, [hGIP(5-30)NH2[F6K]-C16diacid/6]] | – | – | 0 | – | 2.0 | 50.1 | 100 | 48 | 5.3 | 2.3 | – | – | – | –
CC[C@H](C)[C@H](NC(=O)[C@H](CO)NC(=O)[C@H](Cc1ccc(O)cc1)NC(=O)[C@H](CC(=O)O)NC(=O)[C@H](CO)NC(=O)[C@@H](NC(=O)[C@H](Cc1ccccc1)NC(=O)[C@@H](N)[C@@H](C)O)[C@@H](C)CC)C(=O)N[C@@H](C)C(=O)N[C@@H](CCCCNC(=O)CCCCCCCCCCCCCCC(=O)O)C(=O)N[C@@H](CC(=O)O)C(=O)N[C@@H](CCCCN)C(=O)N[C@H](C(=O)N[C@@H](Cc1c[nH]cn1)C(=O)N[C@@H](CCC(N)=O)C(=O)N[C@@H](CCC(N)=O)C(=O)N[C@@H](CC(=O)O)C(=O)N[C@@H](Cc1ccccc1)C(=O)N[C@H](C(=O)N[C@@H](CC(N)=O)C(=O)N[C@@H](Cc1c[nH]c2ccccc12)C(=O)N[C@@H](CC(C)C)C(=O)N[C@@H](CC(C)C)C(=O)N[C@@H](C)C(=O)N[C@@H](CCC(N)=O)C(=O)N[C@@H](CCCCN)C(N)=O)C(C)C)[C@@H](C)CC [AT176, [hGIP(5-30)NH2[M14K]-C16diacid/14]] (H-TFISDYSIAK(C16 diacid)DKIHQQDFVNWLLAQK-NH2; N-terminus assumed) | – | 121 | 12 | – | 4.9 | 126 | 562 | 114 | 3.8 | 5.1 | 105 | 100 | – | –
CC[C@H](C)[C@H](NC(=O)[C@H](CCCCN)NC(=O)[C@H](CC(=O)O)NC(=O)[C@H](CCSC)NC(=O)[C@H](C)NC(=O)[C@H](CCCCNC(=O)CCCCCCCCCCCCCCC(=O)O)NC(=O)[C@H](CO)NC(=O)[C@H](Cc1ccc(O)cc1)NC(=O)[C@H](CC(=O)O)NC(=O)[C@H](CO)NC(=O)[C@@H](NC(=O)[C@H](Cc1ccccc1)NC(=O)[C@@H](N)[C@@H](C)O)[C@@H](C)CC)C(=O)N[C@@H](Cc1c[nH]cn1)C(=O)N[C@@H](CCC(N)=O)C(=O)N[C@@H](CCC(N)=O)C(=O)N[C@@H](CC(=O)O)C(=O)N[C@@H](Cc1ccccc1)C(=O)N[C@H](C(=O)N[C@@H](CC(N)=O)C(=O)N[C@@H](Cc1c[nH]c2ccccc12)C(=O)N[C@@H](CC(C)C)C(=O)N[C@@H](CC(C)C)C(=O)N[C@@H](C)C(=O)N[C@@H](CCC(N)=O)C(=O)N[C@@H](CCCCN)C(N)=O)C(C)C [AT174, [hGIP(5-30)NH2[I12K]-C16diacid/12]] (H-TFISDYSK(C16 diacid)AMDKIHQQDFVNWLLAQK-NH2; N-terminus assumed) | highest antagonistic potencies | – | 0 | – | 3.5 | 79.4 | – | 80 | 0.9 | 6.1 | – | – | – | –
CCCCCCCCCCCCCCCC(=O)NCCCC[C@H](NC(=O)[C@@H](NC(=O)[C@H](CCCNC(=N)N)NC(=O)[C@H](CC(=O)O)NC(=O)[C@H](CCSC)NC(=O)[C@H](C)NC(=O)[C@@H](NC(=O)[C@H](CO)NC(=O)[C@H](Cc1ccc(O)cc1)NC(=O)[C@H](CC(=O)O)NC(=O)[C@H](CO)NC(=O)[C@@H](NC(=O)[C@H](Cc1ccccc1)NC(=O)[C@@H](N)[C@@H](C)O)[C@@H](C)CC)[C@@H](C)CC)[C@@H](C)CC)C(=O)N[C@@H](CCC(N)=O)C(=O)N[C@@H](CCC(N)=O)C(=O)N[C@@H](CC(=O)O)C(=O)N[C@@H](Cc1ccccc1)C(=O)N[C@H](C(=O)N[C@@H](CC(N)=O)C(=O)N[C@@H](Cc1c[nH]c2ccccc12)C(=O)N[C@@H](CC(C)C)C(=O)N[C@@H](CC(C)C)C(=O)N[C@@H](C)C(=O)N[C@@H](CCC(N)=O)C(=O)N[C@@H](CCCNC(=N)N)C(N)=O)C(C)C [AT134, [hGIP(5-30)NH2[K16R; H18K; K30R]-16/18]] (H-TFISDYSIAMDRIK(Palmitoyl)QQDFVNWLLAQR-NH2; N-terminus assumed) | – | 93 | 11 | – | 5.5 | 794 | – | 882 | – | – | – | – | 35 | –
CC[C@H](C)[C@H](NC(=O)[C@H](CO)NC(=O)[C@H](Cc1ccc(O)cc1)NC(=O)[C@H](CC(=O)O)NC(=O)[C@H](CO)NC(=O)[C@@H](NC(=O)[C@H](Cc1ccccc1)NC(=O)[C@@H](N)[C@@H](C)O)[C@@H](C)CC)C(=O)N[C@@H](C)C(=O)N[C@@H](CCSC)C(=O)N[C@@H](CC(=O)O)C(=O)N[C@@H](CCCCN)C(=O)N[C@H](C(=O)N[C@@H](Cc1c[nH]cn1)C(=O)N[C@@H](CCC(N)=O)C(=O)N[C@@H](CCC(N)=O)C(=O)N[C@@H](CC(=O)O)C(=O)N[C@@H](Cc1ccccc1)C(=O)N[C@H](C(=O)N[C@@H](CC(N)=O)C(=O)N[C@@H](CCCCNC(=O)CCCCCCCCCCCCCCC(=O)O)C(=O)N[C@@H](CC(C)C)C(=O)N[C@@H](CC(C)C)C(=O)N[C@@H](C)C(=O)N[C@@H](CCC(N)=O)C(=O)N[C@@H](CCCCN)C(N)=O)C(C)C)[C@@H](C)CC [AT185, [hGIP(5-30)NH2[W25K]-C16diacid/25]] (H-TFISDYSIAMDKIHQQDFVNK(C16 diacid)LLAQK-NH2; N-terminus assumed) | – | 44 | 18 | – | 4.7 | – | – | – | 2.4 | 5.0 | 66.1 | 100 | – | 337
